Series [1] relates to OPCs. The conditions noted are these: cells cultured 72 hrs with 1 μM staurosporine; background 10,000 cpm; Ebner 2000; cited from earlier work.
For series [2], the system named is oligodendrocyte progenitors. Description: Quantitative 3H-thymidine incorporation proliferation assay. It counts as cell-based. As to conditions: recombinant growth factor; background 500-1000 cpm without growth factor. As for the experimental part:
Proliferation assay: The ability of oligodendrocyte progenitors to generate a mitogenic response to specific ligands is measured in a quantitative ^3H-thymidine incorporation assay. Cells are exposed to growth factors, in a dose range that brackets the maximal response to FGF and PDGF, in order to determine the half-maximal response. Responses range from a background of 500-1000 cpm (no growth factor) to 10,000 cpm (recombinant PDGF-AA), and the assay is sufficiently sensitive to accurately detect partial mitogenic responses. All cell proliferation assays are optionally performed at least three independent times. For qualitative assays, cells are exposed to mitogens with 50 μM BrdU (Sigma) present for the final 4 hrs, and DNA synthesis is monitored by dual immunofluorescence for BrdU (Osterhout et al., J. Neurosci. 17:9122-9132 (1997)) and a second lineage marker.
Proliferation assays are performed on cells that have been removed from mitogens for 24 hrs prior to exposure to recombinant growth factors to reduce background levels of DNA synthesis. […] Nucleic acid is recovered using an automatic harvester (Brandel) and the incorporated radioactivity measured by scintillation counting. […]

Series [3] relates to OPCs. As to conditions: background migration 1,000 cells/mm^2; Armstrong et al. 1990; cited from earlier work.

Take `CN[C@@H]1C[C@H]2O[C@@](C)([C@@H]1OC)n1c3ccccc3c3c4c(c5c6ccccc6n2c5c31)C(=O)NC4` [staurosporine]: the “32P incorporation into 3'-ends of DNA” value with OPCs [1] is listed as 100,000 cpm.
With “PDGF-AA: recombinant (human) polypeptide growth factor, oligodendrocyte progenitor cell mitogen”, the “mitogenic response, 3H-thymidine incorporation” value in series [2] is reported as 10,000 cpm. For the same compound, the “chemotaxis, cells migrated” value in the series on OPCs [3] was 4,000 cells/mm^2.
